Reference: patent publication US6107316A, “Method for treating protozoal infections” (priority 1998, dated 2000)
≈ marks a conversion by molar mass, not a printed value.

Experiments:
Giardia lamblia = experiment: in vitro growth inhibitory activity against Giardia lamblia; format: cell-based; details: Giardia duodenalis; concentration required to inhibit growth by 50%
Experimental: 35, pp. 2198-2202 (1991). EC50 values for test compounds, expressed in parts per million (ppm), were calculated from dose response curves and are presented in Table 4. As used herein, the terminology "EC50" means the concentration of test compound required to inhibit growth by 50% are compared to a control lacking the test compound. Metronidazole was included as a standard in the tests for comparative purposes.

Leishmania major = experiment: in vitro growth inhibitory activity against L. major promastigotes; format: cell-based
Excerpt: 35, pp. 2198-2202 (1991).

Tetrahymena pyriformis = experiment: in vitro growth inhibitory activity against the ciliate Tetrahymena pyriformis; format: cell-based, Tetrahymena pyriformis (ATCC strain 30005); details: 24 hours, 25° C., read-out: EC50 Tetrahymena pyriformis
Experimental: Compounds were evaluated for in vitro growth inhibitory activity against the ciliate Tetrahymena pyriformis, which was used as an indicator organism for the Apicomplexia since by several criteria the ciliates and Apicomplexa are closely related (Edlind T. D. et al., Mol. Phylogenet. Evol. vol. 5, pp. 359-367, 1996). T. pyriformis (ATCC strain 30005) was grown in 1 ml ATCC medium 357 at 25° C. in 4 ml polyallomer culture tubes without shaking. Compounds were dissolved in dimethylsufoxide (DMSO) and added to the cultures (containing 3,000 cells/ml) such that the final DMSO concentration was 0.1-0.3%. […] Parasitol. vol. 84, pp. 355-370, 1996) and Cryptosporidium parvum (Arrowood et al., FEMS Microbial. Lett., vol. 136, pp. 245-249, 1996) were tested for comparison.

Toxoplasma gondii [1] = experiment: growth inhibition of T. gondii in L929 host cells ([3H]-uracil incorporation); format: cell-based; details: L929 host cells; for inhibition at 5 µg/mL: Toxoplasma gondii, read-out: % Inhibition
Experimental: (§1) Compounds were tested for it vitro growth inhibitory activity against Toxoplasma gondii replication in L929 (L929-ATCC CCL 1, mouse connective tissue) or HFF (human foreskin fibroblast) host cells using the [^3 H]-uracil incorporation technique as follows. Host cells were grown in 96-well flat-bottom microtiter plates at 37° C in a 5% carbon dioxide environment in modified Eagle's medium containing penicillin, streptomycin and 10% fetal equine serum. Wells containing a homogeneous confluent monolayer of host cells were infected with T. gondii tachyzoites at a ratio of 3 parasites per cell (approximately 6×10^4 tachyzoites per well containing 100 μl of medium). […] Two hours post infection, the cultures were washed to remove free parasites and the various dilutions of test compound were added. Cells were subsequently collected at 24, 48 and 72 hours. Four hours prior to each harvesting 50 Al of [^3 H]-uracil (1 μCi) was added. Cells were collected using a cell harvester and incorporated radioactivity was measured using a scintillation counter. […]

Toxoplasma gondii [2] = experiment: growth inhibition of T. gondii in HFF host cells ([3H]-uracil incorporation); format: cell-based; details: HFF host cells; for inhibition at 5 µg/mL: 5.0 μg/ml
Experimental: as §1

[3] = cytotoxicity towards L929 host cells (Cell Titer 96); details: mouse, % Inhibition of host cell growth (values in parenthesis)
Experimental: (§2) Cytotoxicity of the test compounds towards host cells was determined using the Cell Titer 96™ it (Promega Corporation, Madison, Wis.) as follows. Cells were seeded at a concentration of 5×10^3 cells per well containing 100 μl of medium in 96-well flat-bottom microtiter plates and incubated at 37° C. in a 5% carbon dioxide environment for 4 hours. Dilutions of the test compounds prepared as described above were then added, and incubation continued for 24, 48 or 72 hours. Four hours before each of these time points the growth medium containing test compound was replaced with 100 μl of fresh medium followed by addition of 16 μl of the kit dye solution. After incubation at 37° C. for another 4 hours, 100 μl of the kit solubilization/stop solution was added to each well, the contents of the wells were mixed and the plates kept 1 hour at room temperature. The plates were then read spectrophotometrically in a plate reader at a wavelength of 570 nm. […] Atovaquone was included in the test as a standard.

[4] = cytotoxicity towards HFF host cells (Cell Titer 96); details: human, % Inhibition of host cell growth (values in parenthesis)
Experimental: as §2

Cryptosporidium parvum = experiment: growth inhibitory activity against C. parvum in host MDBKF5D2 cells (immunofluorescence); format: cell-based
Experimental: (§3) Compounds were tested for in vitro growth inhibitory activity against C. parvum grown in host MDBKF5D2 cells and for toxicity towards the host cells as follows. […] To test for toxicity towards the host cells, the media containing test compound (200 μl) were introduced into two wells of a 96 well microtiter plate containing confluent MDBKF5D2 cell monolayers and two wells without monolayers, and incubated at 37° C. in an 8% carbon dioxide environment. After 48 hours, the tetrazolium salt MTS (Owen's solution) and phenazine methosulfate were added to each well at concentrations of 333 μg/ml and 25 μM, respectively. The plate was returned to the incubator in the dark to develop for 2 hours, then 100 μl of each supernatant was transferred to a new microtiter plate and read spectrophotometrically in a plate reader at a wavelength of 490 nm. Percent toxicity was calculated by subtracting the mean optical density (OD) of the drug supernatants from the OD of medium control supernatants (no drug), dividing by the OD of the medium control, and multiplying by 100. To test for growth inhibitory activity against C. parvum, 3×10^4 oocysts per well were incubated in mentioned concentrations of each drug at 37° C. (8% CO2) on confluent MDBKF5D2 cell monolayers in 96 well microtiter plates. After 48 hours, the level of infection in each well was determined by means of an immunofluorescence assay. Percent inhibition of growth was calculated by subtracting the mean parasite count in the wells containing test compound from the mean parasite count in the medium control wells (no test compound), dividing by the mean parasite count in the medium control wells, and multiplying by 100. Paromomycin was included in the test as a standard.

[5] = toxicity towards MDBKF5D2 host cells (MTS); details: bovine, mdbkf5d2 cells, Cytotoxicity (percent toxicity), 100 μM
Experimental: as §3

MDBKF5D2 cells = experiment: toxicity towards MDBKF5D2 host cells (MTS); details: 48 hours, 2880 min
Experimental: as §3

Work on `CCC(C)(NC(=O)c1cc(Cl)cc(Cl)c1)C(=O)C(Br)Br` (centres unmarked) [Compound 4] yielded an EC50 (Giardia lamblia) of 0.3 µg/mL (≈ 0.673 µM), an EC50 (Leishmania major) of 0.2 µg/mL (≈ 0.448 µM) and an EC50 (Tetrahymena pyriformis) of 0.1 µg/mL (≈ 0.224 µM).

In the case of `CCC(C)(NC(=O)c1cc(Cl)cc(Cl)c1)C(=O)CCl` (centres unmarked) [Compound 5], the EC50 (Giardia lamblia) is reported as 0.02 µg/mL (≈ 0.062 µM), the EC50 (Leishmania major) is reported as 0.06 µg/mL (≈ 0.186 µM) and the EC50 (Tetrahymena pyriformis) is reported as 0.003 µg/mL (≈ 0.0093 µM). For the same compound, the “% Inhibition” value (Toxoplasma gondii [1]; 0.5 μg/ml, 24 hours) was 39.2%, the “% Inhibition” value (Toxoplasma gondii [1]; 0.5 μg/ml, 48 hours) was 64.7% and the “% Inhibition” value (Toxoplasma gondii [1]; 0.5 μg/ml, 72 hours) was 44.1%. The “% Inhibition” value (Toxoplasma gondii [1]; 5.0 μg/ml, 24 hours) was 3.3%, the inhibition at 5 µg/mL (Toxoplasma gondii [1]; L929, 48 h, 5.0 μg/ml, 48 hours) was 69.2% and the inhibition at 5 µg/mL (Toxoplasma gondii [1]; L929, 72 h, 5.0 μg/ml, 72 hours) was 84%. For the same compound, the “% Inhibition” value (Toxoplasma gondii [2]; 0.5 μg/ml, 48 hours) was 97.6%, the “% Inhibition” value (Toxoplasma gondii [2]; 0.5 μg/ml, 72 hours) was 80.2% and the inhibition at 0.5 µg/mL (Toxoplasma gondii [2]; Toxoplasma gondii, 24 h, 0.5 μg/ml, 24 hours, read-out: % Inhibition) was 55.9%. The inhibition at 5 µg/mL (Toxoplasma gondii [2]; Toxoplasma gondii, 24 h, 24 hours, read-out: % Inhibition) was 89%, the inhibition at 5 µg/mL (Toxoplasma gondii [2]; Toxoplasma gondii, 48 h, 48 hours, read-out: % Inhibition) was 100% and the inhibition at 5 µg/mL (Toxoplasma gondii [2]; Toxoplasma gondii, 72 h, 72 hours, read-out: % Inhibition) was 99.6%. It also gave an inhibition at 48 h ([3]; L929, 0.5 μg/ml) of 0%, an inhibition at 72 h ([3]; L929, 0.5 μg/ml) of 0% and an inhibition at 48 h ([3]; L929, 5.0 μg/ml) of 66.8%. The inhibition at 72 h ([3]; L929, 5.0 μg/ml) was 91.2%, the inhibition at 48 h ([4]; 0.5 μg/ml, 48 hours) was 5.3% and the inhibition at 24 h ([4]; 5.0 μg/ml, 24 hours) was 8%. The inhibition at 72 h ([4]; 5.0 μg/ml, 72 hours) was 39.6%, the “% Inhibition” value (Cryptosporidium parvum; 10 μM, 48 hours) was 34.1% and the inhibition at 0.1 µM (Cryptosporidium parvum; Cryptosporidium parvum, 48 h, 0.1 μM) was 10%. The inhibition at 1 µM (Cryptosporidium parvum; Cryptosporidium parvum, 48 h, 1.0 μM) was 17.4%, the cytotoxicity at 48 h, 100 µM [5] was 72.6% and the “Cytotoxicity (percent toxicity)” value (MDBKF5D2 cells; 0.1 μM) was 18.8%. For the same compound, the “Cytotoxicity (percent toxicity)” value (MDBKF5D2 cells; 1.0 μM) was 6.7% and the “Cytotoxicity (percent toxicity)” value (MDBKF5D2 cells; 10 μM) was 31.4%.

Work on `CCC(C)(NC(=O)c1cc(Cl)c(N)c(C=NOC)c1)C(=O)CCl` (centres unmarked) [Compound 6, 4-amino-3-chloro-5-methoxyiminomethyl-N-(3-chloro-1-ethyl-1-methyl-2-oxopropyl)benzamide] yielded an EC50 (Giardia lamblia) of 0.009 µg/mL (≈ 0.025 µM), an EC50 (Leishmania major) of 0.6 µg/mL (≈ 1.67 µM) and an EC50 (Tetrahymena pyriformis) of 0.02 µg/mL (≈ 0.0555 µM).

In the case of `CCC(C)(NC(=O)c1cc(Cl)cc(Cl)c1)C(=O)CSC#N` (centres unmarked) [Compound 7], the EC50 (Giardia lamblia) is reported as 0.05 µg/mL (≈ 0.145 µM), the EC50 (Leishmania major) is reported as 0.6 µg/mL (≈ 1.74 µM) and the EC50 (Tetrahymena pyriformis) is reported as 0.07 µg/mL (≈ 0.203 µM).
